{"source": "patent US11850252B2", "about": "“Use of nor-ursodeoxycholic acid for reducing liver fat” (Dr. Falk Pharma GmbH, priority 2017, dated 2023)", "tested_on": "Patients with a clinical diagnosis of non-alcoholic hepatic steatosis", "assay": "Liver enzymes (serum ALT, AST, GGT, AP, bilirubin), phase II clinical trial", "assay_type": "in vivo, human", "method": "A double-blinded, randomized, placebo-controlled phase II clinical trial was conducted as described in the following.\nPatients with a clinical diagnosis of non-alcoholic hepatic steatosis were randomized to a 12-week treatment period and a 4-week follow-up. Patients were divided into three groups. The first groups received 1,500 mg Nor-UDCA per day (6 capsules with 250 mg Nor-UDCA in each capsule). The second group received 500 mg Nor-UDCA per day (2 capsules with 250 mg Nor-UDCA in each capsule and 4 capsules with 250 mg placebo in each capsule). The third group received 6 capsules with 250 mg placebo in each capsule.\nThe effects of Nor-UDCA on liver enzyme values have been assessed with respect to the courses of ALT, AST, GGT, AP and serum bilirubin. In addition, treatment effects with respect to pre-defined outcome criteria based on the upper limits of normal (ULN) of ALT, AST and GGT were examined.\nThe serum levels of ALT, AST, GGT, AP and serum bilirubin were determined by established standard laboratory methods.", "key": {"[1]": {"details": "N500 (500 mg/day), V2 baseline week 0"}, "[2]": {"details": "N500 (500 mg/day), V6 (LOCF)-V2"}}, "note": "Where “and” joins values, the source holds several entries; their conditions need not be identical. Equal entries are not always repeated."}
{"compound": "CC(CC(=O)O)[C@H]1CCC2[C@H]3C(CC[C@@]21C)[C@@]1(C)CCC(O)C[C@H]1C[C@@H]3O", "note": "(some centres unmarked) [Nor-UDCA, 24-nor-ursodeoxycholic acid]", "values": [{"measurement": "mean absolute change of ALT from V2 to V6-LOCF", "setting": "N500 (500 mg/day)", "value": "−7.0", "unit": "U/I"}, {"measurement": "patients fulfilling criterion AST>0.33 ULN to ≤0.67 ULN", "setting": "N500 (500 mg/day)", "value": 26.4, "unit": "%"}, {"measurement": "patients fulfilling outcome criterion GGT>0.33 ULN to ≤0.67", "setting": "N500 (500 mg/day)", "value": 13.0, "unit": "%"}, {"measurement": "patients with combined criterion of ALT and/or AST decrease 15%", "setting": "N500 (500 mg/day)", "value": 49.3, "unit": "%"}, {"measurement": "proportion of patients fulfilling criterion AST<1.5 ULN", "setting": "N500 (500 mg/day)", "value": 50.0, "unit": "%"}, {"measurement": "proportion of patients fulfilling criterion AST<ULN", "setting": "N500 (500 mg/day)", "value": 27.3, "unit": "%"}, {"measurement": "proportion of patients, criterion GGT ULN", "setting": "N500 (500 mg/day)", "value": 12.2, "unit": "%"}, {"measurement": "GGT", "setting": "N500 (500 mg/day), V2", "value": 144.7, "unit": "U/I"}, {"measurement": "ALT, Mean ± SD", "setting": "[1]", "value": "80.3 ± 33.3", "unit": "U/l"}, {"measurement": "ALT/AST, Mean ± SD", "setting": "[1]", "value": "1.71 ± 0.50"}, {"measurement": "AP, Mean ± SD", "setting": "[1]", "value": "83.9 ± 27.6", "unit": "U/l"}, {"measurement": "AST, Mean ± SD", "setting": "[1]", "value": "49.8 ± 27.4", "unit": "U/l"}, {"measurement": "GGT, Mean ± SD", "setting": "[1]", "value": "144.7 ± 160.0", "unit": "U/l"}, {"measurement": "Serum bilirubin, Mean ± SD", "setting": "[1]", "value": "0.64 ± 0.40", "unit": "mg/dL"}, {"measurement": "change of AST", "setting": "N500 (500 mg/day), V2 to V6-LOCF", "value": "−3.8", "unit": "U/I"}, {"measurement": "ALT, Mean ± SD", "setting": "N500 (500 mg/day), V3 week 2", "value": "79.4 ± 40.6", "unit": "U/l"}, {"measurement": "ALT/AST, Mean ± SD", "setting": "N500 (500 mg/day), V3 week 2", "value": "1.70 ± 0.51"}, {"measurement": "AP, Mean ± SD", "setting": "N500 (500 mg/day), V3 week 2", "value": "88.3 ± 34.3", "unit": "U/l"}, {"measurement": "AST, Mean ± SD", "setting": "N500 (500 mg/day), V3 week 2", "value": "47.9 ± 22.4", "unit": "U/l"}, {"measurement": "GGT, Mean ± SD", "setting": "N500 (500 mg/day), V3 week 2", "value": "151.9 ± 166.4", "unit": "U/l"}, {"measurement": "Serum bilirubin, Mean ± SD", "setting": "N500 (500 mg/day), V3 week 2", "value": "0.63 ± 0.38", "unit": "mg/dL"}, {"measurement": "ALT, Mean ± SD", "setting": "N500 (500 mg/day), V4 week 4", "value": "75.2 ± 34.6", "unit": "U/l"}, {"measurement": "ALT/AST, Mean ± SD", "setting": "N500 (500 mg/day), V4 week 4", "value": "1.67 ± 0.48"}, {"measurement": "AP, Mean ± SD", "setting": "N500 (500 mg/day), V4 week 4", "value": "86.5 ± 34.3", "unit": "U/l"}, {"measurement": "AST, Mean ± SD", "setting": "N500 (500 mg/day), V4 week 4", "value": "46.0 ± 18.8", "unit": "U/l"}, {"measurement": "GGT, Mean ± SD", "setting": "N500 (500 mg/day), V4 week 4", "value": "138.9 ± 141.6", "unit": "U/l"}, {"measurement": "Serum bilirubin, Mean ± SD", "setting": "N500 (500 mg/day), V4 week 4", "value": "0.61 ± 0.38", "unit": "mg/dL"}, {"measurement": "ALT, Mean ± SD", "setting": "N500 (500 mg/day), V5 week 8", "value": "75.6 ± 36.8", "unit": "U/l"}, {"measurement": "ALT/AST, Mean ± SD", "setting": "N500 (500 mg/day), V5 week 8", "value": "1.66 ± 0.47"}, {"measurement": "AP, Mean ± SD", "setting": "N500 (500 mg/day), V5 week 8", "value": "86.1 ± 30.0", "unit": "U/l"}, {"measurement": "AST, Mean ± SD", "setting": "N500 (500 mg/day), V5 week 8", "value": "46.9 ± 24.4", "unit": "U/l"}, {"measurement": "GGT, Mean ± SD", "setting": "N500 (500 mg/day), V5 week 8", "value": "133.6 ± 124.2", "unit": "U/l"}, {"measurement": "Serum bilirubin, Mean ± SD", "setting": "N500 (500 mg/day), V5 week 8", "value": "0.64 ± 0.41", "unit": "mg/dL"}, {"measurement": "ALT, Mean ± SD", "setting": "N500 (500 mg/day), V6 (LOCF)", "value": "72.8 ± 33.2", "unit": "U/l"}, {"measurement": "ALT/AST, Mean ± SD", "setting": "N500 (500 mg/day), V6 (LOCF)", "value": "1.67 ± 0.48"}, {"measurement": "AP, Mean ± SD", "setting": "N500 (500 mg/day), V6 (LOCF)", "value": "86.9 ± 32.2", "unit": "U/l"}, {"measurement": "AST, Mean ± SD", "setting": "N500 (500 mg/day), V6 (LOCF)", "value": "45.6 ± 24.7", "unit": "U/l"}, {"measurement": "GGT, Mean ± SD", "setting": "N500 (500 mg/day), V6 (LOCF)", "value": "137.6 ± 144.8", "unit": "U/l"}, {"measurement": "Serum bilirubin, Mean ± SD", "setting": "N500 (500 mg/day), V6 (LOCF)", "value": "0.62 ± 0.38", "unit": "mg/dL"}, {"measurement": "ALT change, Mean ± SD", "setting": "[2]", "value": "−7.0 ± 27.4", "unit": "U/l"}, {"measurement": "ALT/AST ratio change, Mean ± SD", "setting": "[2]", "value": "−0.05 and −0.05 ± 0.37"}, {"measurement": "AST change, Mean ± SD", "setting": "[2]", "value": "−3.8 ± 14.3", "unit": "U/l"}, {"measurement": "Serum bilirubin change, Mean ± SD", "setting": "[2]", "value": "-0.01 ± 0.22", "unit": "mg/dL"}, {"measurement": "GGT", "setting": "N500 (500 mg/day), V6-LOCF", "value": 137.6, "unit": "U/I"}, {"measurement": "ALT, Mean ± SD", "setting": "N500 (500 mg/day), V6 week 12", "value": "70.8 ± 31.6", "unit": "U/l"}, {"measurement": "ALT/AST, Mean ± SD", "setting": "N500 (500 mg/day), V6 week 12", "value": "1.66 ± 0.45"}, {"measurement": "AP, Mean ± SD", "setting": "N500 (500 mg/day), V6 week 12", "value": "87.4 ± 32.7", "unit": "U/l"}, {"measurement": "AST, Mean ± SD", "setting": "N500 (500 mg/day), V6 week 12", "value": "43.9 ± 20.4", "unit": "U/l"}, {"measurement": "GGT, Mean ± SD", "setting": "N500 (500 mg/day), V6 week 12", "value": "139.2 ± 147.6", "unit": "U/l"}, {"measurement": "Serum bilirubin, Mean ± SD", "setting": "N500 (500 mg/day), V6 week 12", "value": "0.62 ± 0.36", "unit": "mg/dL"}, {"measurement": "patients fulfilling outcome criterion ALT≤0.8 ULN", "setting": "N500 (500 mg/day), patients with ALT>0.8 at baseline", "value": 14.8, "unit": "%"}, {"measurement": "patients fulfilling outcome criterion ALT<ULN", "setting": "N500 (500 mg/day), patients with ALT>1.0 at baseline", "value": 16.9, "unit": "%"}, {"measurement": "patients fulfilling outcome criterion ALT<1.5 ULN", "setting": "N500 (500 mg/day), patients with ALT>1.5 at baseline", "value": 37.9, "unit": "%"}, {"measurement": "mean absolute change of ALT from V2 to V6-LOCF", "setting": "N1500 (1,500 mg/day)", "value": "−17.2", "unit": "U/I"}, {"measurement": "patients fulfilling criterion AST>0.33 ULN to ≤0.67 ULN", "setting": "N1500 (1,500 mg/day)", "value": 32.7, "unit": "%"}, {"measurement": "patients fulfilling outcome criterion GGT>0.33 ULN to ≤0.67", "setting": "N1500 (1,500 mg/day)", "value": 21.6, "unit": "%"}]}
